Data set [1] deals with CYP1A1. The conditions noted are these: for mCherry fluorescence intensity at different concentrations: real-time, TCDD positive control. How it is done: The CYP1A1 fluorescently labelled stem cell line-derived hepatic organoids were treated with the selected hazardous chemicals, tert-butylhydroquinone (tBHQ), 1,2-naphtoquinone (1,2-NQ), and 1,4-naphtoquinone (1,4-NQ) to observe the changes in mCherry fluorescence intensity in real-time.

Data set [2] concerns CYP1A1. The data set can be described thus: CYP1A1 mRNA expression level in CYP1A1-mCherry hPSC-derived hepatic organoids. In kind it is cell-based, human.
[3] abbreviates: hepatic organoids, real-time fluorescence, 24 hours of treatment.

The structures appear in SMILES notation. Read-outs that look alike come from different tables or passages of the source.

Consider `O=C1C=Cc2ccccc2C1=O` [1,2-NQ, 1,2-Naphtoquinone], for which the “mCherry fluorescence intensity at different concentrations” value with CYP1A1 [1] (hepatic organoids) is “increased in a concentration-dependent manner”.

Consider `O=C1C=CC(=O)c2ccccc21` [1,4-NQ, 1,4-Naphtoquinone], for which the “mCherry fluorescence intensity at different concentrations” value with CYP1A1 [1] (hepatic organoids) was “increased in a concentration-dependent manner”.

With `Cc1ccc2cc3c(ccc4ccccc43)c3c2c1CC3` [3-MC, 3-methylcholanthrene], in the data set on CYP1A1 [1] (setting [3]), the “mCherry fluorescence intensity in hepatic organoids” value is “increase”.

With `Cc1ccccc1N=Nc1ccc(NC(=O)c2ccnn2C)c(C)c1` [CH223191], the “mCherry fluorescence intensity, treated together with AHR agonists” value with CYP1A1 [1] (hepatic organoids, treated together with TCDD and BaP) is on record as “decreased”. Besides, in the data set with CYP1A1 [1] (hepatic organoids, treated together with tBHQ, 1,2-NQ, 1,4-NQ), the “mCherry fluorescence intensity, treated together with three hazardous chemicals” value was “decreased”. The “CYP1A1 gene expression level, treated together with AHR agonists” value in the data set on CYP1A1 [2] (treated together with TCDD and BaP) is listed as “decreased”. Further, in the data set on CYP1A1 [2] (treated together with tBHQ, 1,2-NQ, 1,4-NQ), the “CYP1A1 mRNA expression level, treated together with three hazardous chemicals” value is “decrease”.

As for `COc1cccc2c1C(=O)c1c(O)c3c(c(O)c1C2=O)C[C@@](O)(C(=O)CO)C[C@@H]3O[C@H]1C[C@H](N)[C@H](O)[C@H](C)O1` [DOX, doxorubicin], the “mCherry fluorescence intensity in hepatic organoids” value with CYP1A1 [1] was “increase”.

Regarding `O=Cc1c2c(cc3c1=Nc1ccccc1-3)=Nc1ccccc1-2` [FICZ, 6-formylindolo [3,2-B]carbazole], in the data set on CYP1A1 [1] (setting [3]), the “mCherry fluorescence intensity in hepatic organoids” value is given as “increase”.

`Clc1cc2c(cc1Cl)Oc1cc(Cl)c(Cl)cc1O2` [TCDD, 2,3,7,8-tetrachlorodibenzo-p-dioxin]: the “mCherry fluorescence intensity, time-lapse imaging” value in the data set with CYP1A1 [1] (hepatic organoids, 3-hour intervals up to 72 hours after treatment) is “increased in a time-dependent manner”. In the data set on CYP1A1 [1] (hepatic organoids, 24 hours after treatment, imaging device), the mCherry fluorescence result was “increase”. Moreover, the “CYP1A1 mRNA expression level” value in the data set on CYP1A1 [2] (24 hours after treatment) is on record as “increased”.

Regarding `COc1cccc2c1C(=O)c1c(O)c3c(c(O)c1C2=O)C[C@@](O)(C(C)=O)C[C@@H]3O[C@H]1C[C@H](N)[C@H](O)[C@H](C)O1` [daunorubicin], the “mCherry fluorescence intensity in hepatic organoids” value in the data set on CYP1A1 [1] is reported as “increase”.

On to `CC(=O)[C@]1(O)Cc2c(O)c3c(c(O)c2[C@@H](O[C@H]2C[C@H](N)[C@H](O)[C@H](C)O2)C1)C(=O)c1ccccc1C3=O` [idarubicin], for which the “mCherry fluorescence intensity in hepatic organoids” value in the data set with CYP1A1 [1] is reported as “increase”.

With `Cc1oncc1C(=O)Nc1ccc(C(F)(F)F)cc1` [leflunomide], in the data set on CYP1A1 [1], the “mCherry fluorescence intensity in hepatic organoids” value is reported as “increase”.

Take `CC(C)(C)c1cc(O)ccc1O` [tBHQ, tert-Butylhydroquinone]: the “mCherry fluorescence intensity at different concentrations” value in the data set on CYP1A1 [1] (hepatic organoids) is “increased in a concentration-dependent manner”.

Source of the values: patent US20250136946A1, “REAL-TIME CHEMICAL SCREENING METHOD USING LIVER ORGANOIDS FLUORESCENTLY LABELED WITH CYTOCHROME P450 1A1 ENZYME” (priority 2023, published 2025).
